Results as given in PubChem BioAssay AID2060607 (Molecular Pharmacology Branch, DTP, NCI, 2025).

Test system: 876862-298-R-J1-PDC complex spheroids, viability % test/control
Assay: Anticancer human tumor 876862-298-R-J1-PDC patient-derived endometrial carcinoma cell line growth inhibition [CLK]
Conditions: for IC50: curve of first compound; for viability, T/C: stronger effect = lower value
In short: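 Multi-cell-type spheroids combined patient-derived tumor cells with HUVEC endothelial cells and human mesenchymal stem cells. Paired agents were dosed in half-log steps down from about clinical Cmax, or from 10 microM where Cmax was unknown.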

[1] = second compound 0.0316 µM, first compound 0.0316 µM
[2] = second compound 0.0316 µM, first compound 0.1 µM
[3] = second compound 0.0316 µM, first compound 0.316 µM
[4] = second compound 0.0316 µM, first compound 1 µM
[5] = second compound 0.0316 µM, first compound 3.16 µM
[6] = second compound 0.0316 µM, first compound 10 µM
[7] = second compound 0.1 µM, first compound 0.0316 µM
[8] = second compound 0.1 µM, first compound 0.1 µM
[9] = second compound 0.1 µM, first compound 0.316 µM
[10] = second compound 0.1 µM, first compound 1 µM
[11] = second compound 0.1 µM, first compound 3.16 µM
[12] = second compound 0.1 µM, first compound 10 µM
[13] = second compound 0.316 µM, first compound 0.0316 µM
[14] = second compound 0.316 µM, first compound 0.1 µM
[15] = second compound 0.316 µM, first compound 0.316 µM
[16] = second compound 0.316 µM, first compound 1 µM
[17] = second compound 0.316 µM, first compound 3.16 µM
[18] = second compound 0.316 µM, first compound 10 µM
[19] = second compound 1 µM, first compound 0.0316 µM
[20] = second compound 1 µM, first compound 0.1 µM
[21] = second compound 1 µM, first compound 0.316 µM
[22] = second compound 1 µM, first compound 1 µM
[23] = second compound 1 µM, first compound 3.16 µM
[24] = second compound 1 µM, first compound 10 µM
[25] = second compound 3.16 µM, first compound 0.0316 µM
[26] = second compound 3.16 µM, first compound 0.1 µM
[27] = second compound 3.16 µM, first compound 0.316 µM
[28] = second compound 3.16 µM, first compound 1 µM
[29] = second compound 3.16 µM, first compound 3.16 µM
[30] = second compound 3.16 µM, first compound 10 µM
[31] = second compound 10 µM, first compound 0.0316 µM
[32] = second compound 10 µM, first compound 0.1 µM
[33] = second compound 10 µM, first compound 0.316 µM
[34] = second compound 10 µM, first compound 1 µM
[35] = second compound 10 µM, first compound 3.16 µM
[36] = second compound 10 µM, first compound 10 µM
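Note: spheroids exposed to drugs for 7 days before readout.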
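Throughout, for viability, T/C: 100% = DMSO vehicle control wells.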

CC(C)CC(NC(=O)C(Cc1ccccc1)NC(=O)c1cnccn1)B(O)O (stereo unspecified) + CN1CCN(c2cc(C(=O)Nc3cc4cc(-c5cnn(C)c5)ccc4cn3)ccn2)CC1
IC50 (second compound 0.0316 µM): 0.00177 µM | IC50 (second compound 0.1 µM): 0.00097 µM | IC50 (second compound 0.316 µM): < 0.000949 µM | IC50 (second compound 1 µM): < 0.000949 µM | IC50 (second compound 3.16 µM): < 0.000949 µM | IC50 (second compound 10 µM): < 0.000949 µM | viability, T/C (second compound 0.0316 µM, first compound 0.000949 µM): 92.9% | viability, T/C (second compound 0.0316 µM, first compound 0.003 µM): 13.8% | viability, T/C (second compound 0.0316 µM, first compound 0.00949 µM): 1.49% | viability, T/C (second compound 0.0316 µM, first compound 0.03 µM): 0.54% | viability, T/C (second compound 0.0316 µM, first compound 0.0949 µM): 0.87% | viability, T/C (second compound 0.0316 µM, first compound 0.3 µM): 0.26% | viability, T/C (second compound 0.1 µM, first compound 0.000949 µM): 50.9% | viability, T/C (second compound 0.1 µM, first compound 0.003 µM): 9.76% | viability, T/C (second compound 0.1 µM, first compound 0.00949 µM): 0.72% | viability, T/C (second compound 0.1 µM, first compound 0.03 µM): 0.44% | viability, T/C (second compound 0.1 µM, first compound 0.0949 µM): 0.43% | viability, T/C (second compound 0.1 µM, first compound 0.3 µM): 0.26% | viability, T/C (second compound 0.316 µM, first compound 0.000949 µM): 2.77% | viability, T/C (second compound 0.316 µM, first compound 0.003 µM): 0.46% | viability, T/C (second compound 0.316 µM, first compound 0.00949 µM): 1.45% | viability, T/C (second compound 0.316 µM, first compound 0.03 µM): 0.39% | viability, T/C (second compound 0.316 µM, first compound 0.0949 µM): 0.5% | viability, T/C (second compound 0.316 µM, first compound 0.3 µM): 0.26% | viability, T/C (second compound 1 µM, first compound 0.000949 µM): 0.6% | viability, T/C (second compound 1 µM, first compound 0.003 µM): 0.27% | viability, T/C (second compound 1 µM, first compound 0.00949 µM): 0.45% | viability, T/C (second compound 1 µM, first compound 0.03 µM): 0.53% | viability, T/C (second compound 1 µM, first compound 0.0949 µM): 0.45% | viability, T/C (second compound 1 µM, first compound 0.3 µM): 0.57% | viability, T/C (second compound 3.16 µM, first compound 0.000949 µM): 1.3% | viability, T/C (second compound 3.16 µM, first compound 0.003 µM): 0.5% | viability, T/C (second compound 3.16 µM, first compound 0.00949 µM): 0.68% | viability, T/C (second compound 3.16 µM, first compound 0.03 µM): 0.95% | viability, T/C (second compound 3.16 µM, first compound 0.0949 µM): 0.69% | viability, T/C (second compound 3.16 µM, first compound 0.3 µM): 0.43% | viability, T/C (second compound 10 µM, first compound 0.000949 µM): 0.67% | viability, T/C (second compound 10 µM, first compound 0.003 µM): 0.32% | viability, T/C (second compound 10 µM, first compound 0.00949 µM): 1.9% | viability, T/C (second compound 10 µM, first compound 0.03 µM): 0.44% | viability, T/C (second compound 10 µM, first compound 0.0949 µM): 0.42% | viability, T/C (second compound 10 µM, first compound 0.3 µM): 0.27%

CC1COCCN1c1cc(C2(S(C)(=N)=O)CC2)nc(-c2ccnc3[nH]ccc23)n1 (stereo unspecified) + CN1CCN(c2cc(C(=O)Nc3cc4cc(-c5cnn(C)c5)ccc4cn3)ccn2)CC1
IC50 (second compound 0.0316 µM): 2.1 µM | IC50 (second compound 0.1 µM): < 0.0316 µM | IC50 (second compound 0.316 µM): < 0.0316 µM | IC50 (second compound 1 µM): < 0.0316 µM | IC50 (second compound 3.16 µM): < 0.0316 µM | IC50 (second compound 10 µM): < 0.0316 µM | viability, T/C [1]: 89.1% | viability, T/C [2]: 87.5% | viability, T/C [3]: 76.5% | viability, T/C [4]: 62.1% | viability, T/C [5]: 43.6% | viability, T/C [6]: 17.9% | viability, T/C [7]: 45.1% | viability, T/C [8]: 51.9% | viability, T/C [9]: 38.9% | viability, T/C [10]: 33.6% | viability, T/C [11]: 18.4% | viability, T/C [12]: 7.47% | viability, T/C [13]: 2.43% | viability, T/C [14]: 2.03% | viability, T/C [15]: 2.19% | viability, T/C [16]: 2.32% | viability, T/C [17]: 2.12% | viability, T/C [18]: 1.33% | viability, T/C [19]: 0.64% | viability, T/C [20]: 0.83% | viability, T/C [21]: 0.8% | viability, T/C [22]: 0.51% | viability, T/C [23]: 0.47% | viability, T/C [24]: 0.27% | viability, T/C [25]: 0.98% | viability, T/C [26]: 1.82% | viability, T/C [27]: 0.92% | viability, T/C [28]: 0.81% | viability, T/C [29]: 0.61% | viability, T/C [30]: 0.4% | viability, T/C [31]: 0.94% | viability, T/C [32]: 0.66% | viability, T/C [33]: 1.4% | viability, T/C [34]: 0.63% | viability, T/C [35]: 0.59% | viability, T/C [36]: 0.74%

O=C(c1cc(Cc2n[nH]c(=O)c3ccccc23)ccc1F)N1CCN(C(=O)C2CC2)CC1 + CN1CCN(c2cc(C(=O)Nc3cc4cc(-c5cnn(C)c5)ccc4cn3)ccn2)CC1
IC50 (second compound 0.0316 µM): > 10 µM | IC50 (second compound 0.1 µM): 0.633 µM | IC50 (second compound 0.316 µM): < 0.0316 µM | IC50 (second compound 1 µM): < 0.0316 µM | IC50 (second compound 3.16 µM): < 0.0316 µM | IC50 (second compound 10 µM): < 0.0316 µM | viability, T/C [1]: 88.1% | viability, T/C [2]: 95.5% | viability, T/C [3]: 85.7% | viability, T/C [4]: 94.9% | viability, T/C [5]: 96.2% | viability, T/C [6]: 74.6% | viability, T/C [7]: 51.3% | viability, T/C [8]: 50.5% | viability, T/C [9]: 50.9% | viability, T/C [10]: 50.6% | viability, T/C [11]: 45% | viability, T/C [12]: 35.2% | viability, T/C [13]: 2.72% | viability, T/C [14]: 3.01% | viability, T/C [15]: 2.89% | viability, T/C [16]: 3.34% | viability, T/C [17]: 3.07% | viability, T/C [18]: 2.03% | viability, T/C [19]: 0.78% | viability, T/C [20]: 1.06% | viability, T/C [21]: 0.79% | viability, T/C [22]: 0.54% | viability, T/C [23]: 0.67% | viability, T/C [24]: 0.77% | viability, T/C [25]: 1.02% | viability, T/C [26]: 0.99% | viability, T/C [27]: 1.13% | viability, T/C [28]: 1.07% | viability, T/C [29]: 2.34% | viability, T/C [30]: 1.07% | viability, T/C [31]: 0.83% | viability, T/C [32]: 0.87% | viability, T/C [33]: 0.89% | viability, T/C [34]: 1.19% | viability, T/C [35]: 1.06% | viability, T/C [36]: 0.83%
